Legend:
[1] = biological target: PfPHB2 (Plasmodium falciparum, UniProt Q8IJP8); test: biochemical
[2] = biological target: PfPHB1 (Plasmodium falciparum, UniProt Q8IBC3); test: biochemical
PfPHB1, sequence (Q8IBC3 1-272): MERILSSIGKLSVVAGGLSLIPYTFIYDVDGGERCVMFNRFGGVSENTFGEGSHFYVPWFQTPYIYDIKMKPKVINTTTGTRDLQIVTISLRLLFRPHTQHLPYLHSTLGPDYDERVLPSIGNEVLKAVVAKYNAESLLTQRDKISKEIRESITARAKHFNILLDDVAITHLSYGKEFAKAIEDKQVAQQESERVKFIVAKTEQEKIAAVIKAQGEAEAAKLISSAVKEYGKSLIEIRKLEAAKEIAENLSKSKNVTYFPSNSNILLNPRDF

PfPHB2, sequence (Q8IJP8 1-304): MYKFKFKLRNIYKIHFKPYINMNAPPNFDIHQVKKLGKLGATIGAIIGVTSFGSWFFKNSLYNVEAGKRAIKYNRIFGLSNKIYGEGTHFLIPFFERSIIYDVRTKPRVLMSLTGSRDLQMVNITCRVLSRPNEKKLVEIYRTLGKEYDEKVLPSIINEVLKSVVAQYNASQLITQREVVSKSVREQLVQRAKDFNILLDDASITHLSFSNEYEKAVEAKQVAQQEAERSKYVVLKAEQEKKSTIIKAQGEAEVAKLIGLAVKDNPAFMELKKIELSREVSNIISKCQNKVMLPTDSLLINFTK

**Q.** Which results are given for `COc1ccc([C@@]23Oc4cc(OC)cc(OC)c4[C@]2(O)[C@H](O)[C@H](C(=O)N(C)C)[C@H]3c2ccccc2)cc1` [Roc-A]?
**A.** Kd [1]: 0.683 ± 0.021 µM; Kd [2]: 1.37 ± 0.6 µM
